From US20160168118A1, “N-(5-QUINOLIN-6-YL)PYRIDIN-3-YL) BENZSULFAMIDE DERIVATIVES, PREPARATION METHOD AND THERAPEUTIC USE THEREOF” (SECOND MILITARY MEDICAL UNIVERSITY, PLA, priority 2012, published 2016)
Values after ≈ are worked out from the molar mass of the structure shown.

Legend:
PI3Kα = PI3Kα (Homo sapiens, UniProt P42336); experiment: Kinase-Glo Luminescent Kinase Assay, PI3Kα; type: biochemical
[1] = system: A549 (human lung cancer cells); experiment: MTT assay, A549; type: cell-based; settings: 72 h
Description: (§1) 1. Sample preparation: After dissolved with DMSO (Merck), PBS (−) was added to make 1000 μg/ml solution or a uniform suspension, and then diluted with PBS (−) containing the DMSO. Doxorubicin (DOX) was used as the positive control drug.
(§2) 2. Cell Line • 1) A549 (human lung cancer cells); 2) HCT116 (human colon cancer cells); 3) HepG2 (human hepatoma cells); 4) ZR-75-30 (human breast cancer cells); 5) U87MG (human brain star glioblastoma)
(§3) DMEM+5-10% FBS+double resistant
(§4) MTT assay. 100 μl cell suspension was added at a concentration of 4˜5×10^4 cells/ml to each well of a 96-well plate, and was set at 37° C., 5% CO2 in the incubator. After 24 h, the sample solution was added, 10 μl/hole, double wells were set, 37° C., acting for 72 h at 5% CO2. […] of 5 mg/ml was added to each well, the dissolving liquid was added after acted for 4 h, 100 μl/hole, kept in the incubator, and read 570 nm OD with MK-2 automatic microplate reader after dissolution.

[2] = system: HCT116 (human colon cancer cells); experiment: MTT assay, HCT116; type: cell-based; settings: HCT-116, 72 h
[3] = system: U87MG (human brain star glioblastoma); experiment: MTT assay, U87MG; type: cell-based; settings: U-87 MG, 72 h
Description: as §1, §2, §3, §4

[4] = system: HepG2 (human hepatoma cells); experiment: MTT assay, HepG2; type: cell-based; settings: 72 h
Description: as §1, §2, §3, §4

PI3Kα, sequence (P42336 whole entry, species assumed): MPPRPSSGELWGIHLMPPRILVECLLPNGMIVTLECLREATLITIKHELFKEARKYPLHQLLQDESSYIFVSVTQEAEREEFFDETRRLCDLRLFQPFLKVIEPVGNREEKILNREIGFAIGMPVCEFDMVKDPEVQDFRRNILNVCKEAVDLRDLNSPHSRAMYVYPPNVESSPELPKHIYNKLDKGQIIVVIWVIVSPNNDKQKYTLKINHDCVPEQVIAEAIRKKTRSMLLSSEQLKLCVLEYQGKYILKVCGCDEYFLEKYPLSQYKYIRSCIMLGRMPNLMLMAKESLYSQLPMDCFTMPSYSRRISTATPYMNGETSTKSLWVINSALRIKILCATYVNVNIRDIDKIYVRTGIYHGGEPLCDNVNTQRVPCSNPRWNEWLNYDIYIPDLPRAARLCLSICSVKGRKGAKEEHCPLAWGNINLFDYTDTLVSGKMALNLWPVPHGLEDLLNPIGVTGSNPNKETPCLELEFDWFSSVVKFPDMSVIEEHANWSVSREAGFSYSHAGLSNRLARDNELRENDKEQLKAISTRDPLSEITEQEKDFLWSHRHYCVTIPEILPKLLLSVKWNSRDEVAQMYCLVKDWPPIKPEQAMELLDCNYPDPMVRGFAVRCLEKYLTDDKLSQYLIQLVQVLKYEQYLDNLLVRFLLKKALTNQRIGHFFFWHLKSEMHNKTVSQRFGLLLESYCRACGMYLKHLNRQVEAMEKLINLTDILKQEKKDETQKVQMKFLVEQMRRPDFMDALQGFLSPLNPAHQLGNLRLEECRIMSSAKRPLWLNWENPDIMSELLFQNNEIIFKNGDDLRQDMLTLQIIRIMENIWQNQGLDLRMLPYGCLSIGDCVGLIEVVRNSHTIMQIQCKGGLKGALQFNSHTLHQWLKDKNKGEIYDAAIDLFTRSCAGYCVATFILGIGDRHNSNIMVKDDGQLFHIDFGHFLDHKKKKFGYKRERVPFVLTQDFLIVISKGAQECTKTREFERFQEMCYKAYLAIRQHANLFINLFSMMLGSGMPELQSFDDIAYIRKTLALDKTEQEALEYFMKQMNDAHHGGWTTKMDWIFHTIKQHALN
PI3Kα, sequence (P27986 whole entry partner, species assumed): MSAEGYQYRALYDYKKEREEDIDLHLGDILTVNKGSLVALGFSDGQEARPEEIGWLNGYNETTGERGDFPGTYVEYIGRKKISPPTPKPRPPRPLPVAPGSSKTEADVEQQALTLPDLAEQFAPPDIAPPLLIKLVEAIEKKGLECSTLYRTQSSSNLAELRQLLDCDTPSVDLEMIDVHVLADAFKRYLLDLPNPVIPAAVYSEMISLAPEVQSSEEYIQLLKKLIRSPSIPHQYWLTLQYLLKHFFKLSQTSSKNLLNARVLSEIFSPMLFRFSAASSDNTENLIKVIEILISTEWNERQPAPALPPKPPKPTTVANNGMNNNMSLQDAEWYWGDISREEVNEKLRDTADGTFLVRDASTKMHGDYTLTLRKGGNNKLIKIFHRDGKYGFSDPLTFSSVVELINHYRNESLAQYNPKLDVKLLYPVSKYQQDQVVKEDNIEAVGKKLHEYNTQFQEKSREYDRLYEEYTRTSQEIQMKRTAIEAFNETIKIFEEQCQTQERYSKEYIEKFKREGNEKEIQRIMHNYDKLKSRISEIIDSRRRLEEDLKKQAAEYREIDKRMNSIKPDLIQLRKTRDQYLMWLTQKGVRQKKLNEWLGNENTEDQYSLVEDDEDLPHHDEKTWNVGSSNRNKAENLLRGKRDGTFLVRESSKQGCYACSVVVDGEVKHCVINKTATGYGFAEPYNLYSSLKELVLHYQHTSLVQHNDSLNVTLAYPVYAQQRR

IC50 (PI3Kα)	IC50 [1]	IC50 [2]	IC50 [3]	melting point	IC50 [4]	SMILES
0.7 nM	0.048 µg/mL (≈ 0.0799 µM)	0.221 µg/mL (≈ 0.368 µM)	0.284 µg/mL (≈ 0.473 µM)	115 to 117 °C		COc1ncc(-c2ccc3nccc(-c4ccc(C(=O)N5CCCC5)cc4)c3c2)cc1NS(=O)(=O)c1ccc(F)cc1F [Compound 11, N-(2-methoxy-5-(4-(4-(pyrrolidinyl-1-carbonyl)phenyl)quinolin-6-yl)pyridin-3-yl)-2,4-difluorobenzenesulfonamide]
1.4 nM	0.022 µg/mL (≈ 0.0375 µM)	0.011 µg/mL (≈ 0.0188 µM)	0.093 µg/mL (≈ 0.159 µM)	129 to 130 °C		COc1ncc(-c2ccc3nccc(-c4ccc(CN5CCCC5)cc4)c3c2)cc1NS(=O)(=O)c1ccc(F)cc1F [Compound 12]
1.1 nM	0.042 µg/mL (≈ 0.0697 µM)	0.00196 µg/mL (≈ 0.00325 µM)	0.091 µg/mL (≈ 0.151 µM)	97 to 99 °C		COc1ncc(-c2ccc3nccc(-c4ccc(CN5CCOCC5)cc4)c3c2)cc1NS(=O)(=O)c1ccc(F)cc1F [Compound 13, N-(5-(4-(4-((morpholino-1-yl)methyl)phenyl)quinolin-6-yl)-2-methoxypyridine-3-yl)-2,4-difluorobenzenesulfonamide]
1.2 nM	0.00934 µg/mL (≈ 0.0155 µM)	0.0205 µg/mL (≈ 0.0341 µM)	0.019 µg/mL (≈ 0.0316 µM)			COc1ncc(-c2ccc3nccc(-c4ccc(CN5CCCCC5)cc4)c3c2)cc1NS(=O)(=O)c1ccc(F)cc1F [Compound 14, N-(5-(4-(4-((piperidine-1-yl)methyl)phenyl)quinolin-6-yl)-2-methoxypyridine-3-yl)-2,4-difluorobenzenesulfonamide]
1.1 nM	0.018 µg/mL (≈ 0.0308 µM)	0.019 µg/mL (≈ 0.0326 µM)	0.35 µg/mL (≈ 0.6 µM)	108 to 109 °C		COc1ncc(-c2ccc3nccc(-c4ccc(Cn5ccnc5)cc4)c3c2)cc1NS(=O)(=O)c1ccc(F)cc1F [Compound 15, N-(5-(4-(4-((1H-imidazole-1-yl)methyl)phenyl)quinolin-6-yl)-2-methoxypyridine-3-yl)-2,4-difluorobenzenesulfonamide]
0.95 nM	0.00608 µg/mL (≈ 0.0102 µM)	0.00846 µg/mL (≈ 0.0142 µM)	0.024 µg/mL (≈ 0.0402 µM)	110 to 111 °C		COc1ncc(-c2ccc3nccc(-c4ccc(Cn5ccnc5C)cc4)c3c2)cc1NS(=O)(=O)c1ccc(F)cc1F [Compound 16, N-(5-(4-(4-((2-methyl-1H-imidazole-1-yl)methyl)phenyl)quinolin-6-yl)-2-methoxypyridine-3-yl)-2,4-difluorobenzenesulfonamide]
1.7 nM	0.00124 µg/mL (≈ 0.00193 µM)	0.0159 µg/mL (≈ 0.0247 µM)	0.301 µg/mL (≈ 0.468 µM)			COc1ncc(-c2ccc3nccc(-c4ccc(CN5CCN(C(C)C)CC5)cc4)c3c2)cc1NS(=O)(=O)c1ccc(F)cc1F [Compound 18, N-(5-(4-(4-((4-isopropylpiperazine-1-yl)methyl)phenyl)quinolin-6-yl)-2-methoxypyridine-3-yl)-2,4-difluorobenzenesulfonamide]
1.2 nM	0.016 µg/mL (≈ 0.0248 µM)	0.014 µg/mL (≈ 0.0217 µM)	0.137 µg/mL (≈ 0.212 µM)			COc1ncc(-c2ccc3nccc(-c4ccc(CN5CCN(CCO)CC5)cc4)c3c2)cc1NS(=O)(=O)c1ccc(F)cc1F [Compound 19, N-(5-(4-(4-((4-(2-hydroxyethyl)piperazine-1-yl)methyl)phenyl)quinolin-6-yl)-2-methoxypyridine-3-yl)-2,4-difluorobenzenesulfonamide]
1.3 nM	0.00174 µg/mL (≈ 0.0028 µM)	0.00237 µg/mL (≈ 0.00382 µM)	0.089 µg/mL (≈ 0.143 µM)	90 to 91 °C		COc1ncc(-c2ccc3nccc(-c4ccc(CN(CCO)CCO)cc4)c3c2)cc1NS(=O)(=O)c1ccc(F)cc1F [Compound 20, N-(5-(4-(4-((di(2-hydroxyethyl)amino)methyl)phenyl)quinolin-6-yl)-2-methoxypyridine-3-yl)-2,4-difluorobenzenesulfonamide]
1.1 nM	0.018 µg/mL (≈ 0.0308 µM)	0.031 µg/mL (≈ 0.0531 µM)	0.935 µg/mL (≈ 1.6 µM)	93 to 95 °C		COc1ncc(-c2ccc3nccc(-c4ccc(Cn5cccn5)cc4)c3c2)cc1NS(=O)(=O)c1ccc(F)cc1F [Compound 21, N-(5-(4-(4-((1H-pyrazole-1-yl)methyl)phenyl)quinolin-6-yl)-2-methoxypyridine-3-yl)-2,4-difluorobenzenesulfonamide]
1.6 nM	0.013 µg/mL (≈ 0.0202 µM)	0.143 µg/mL (≈ 0.222 µM)	0.93 µg/mL (≈ 1.45 µM)	87 to 88 °C		CCN(Cc1ccc(-c2ccnc3ccc(-c4cnc(OC)c(NS(=O)(=O)c5ccc(F)cc5F)c4)cc23)cc1)C1CCCCC1 [Compound 22, N-(5-(4-(4-((cyclohexyl(ethyl)amino)methyl)phenyl)quinolin-6-yl)-2-methoxypyridine-3-yl)-2,4-difluorobenzenesulfonamide]
1.3 nM	0.00818 µg/mL (≈ 0.0133 µM)	0.027 µg/mL (≈ 0.0439 µM)	0.207 µg/mL (≈ 0.336 µM)			COc1ncc(-c2ccc3nccc(-c4ccc(CN5CCN(C)CC5)cc4)c3c2)cc1NS(=O)(=O)c1ccc(F)cc1F [Compound 23, N-(5-(4-(4-((4-methylpiperazine-1-yl)methyl)phenyl)quinolin-6-yl)-2-methoxypyridine-3-yl)-2,4-difluorobenzenesulfonamide]
2.5 nM	0.00804 µg/mL (≈ 0.013 µM)	0.032 µg/mL (≈ 0.0518 µM)	0.157 µg/mL (≈ 0.254 µM)	87 to 88 °C		COc1ncc(-c2ccc3nccc(-c4ccc(CN(C)CCN(C)C)cc4)c3c2)cc1NS(=O)(=O)c1ccc(F)cc1F [Compound 24]
1.5 nM	0.47 µg/mL (≈ 0.798 µM)	1.87 µg/mL (≈ 3.17 µM)			4.55 µg/mL (≈ 7.72 µM)	O=S(=O)(Nc1cc(-c2ccc3nccc(-c4ccc(CN5CCOCC5)cc4)c3c2)cnc1Cl)c1ccc(F)cc1 [Compound 28, N-(5-(4-(4-((morpholino-1-yl)methyl)phenyl)quinolin-6-yl)-2-chlorinepyridin-3-yl)-4-fluorobenzenesulfonamide]
1.6 nM	0.15 µg/mL (≈ 0.257 µM)	1.37 µg/mL (≈ 2.34 µM)			15.9 µg/mL (≈ 27.1 µM)	COc1ncc(-c2ccc3nccc(-c4ccc(CN5CCOCC5)cc4)c3c2)cc1NS(=O)(=O)c1ccc(F)cc1 [Compound 29, N-(5-(4-(4-((morpholino-1-yl)methyl)phenyl)quinolin-6-yl)-2-methoxypyridine-3-yl)-4-fluorobenzenesulfonamide]
1.1 nM	0.22 µg/mL (≈ 0.362 µM)	2.39 µg/mL (≈ 3.94 µM)			1.4 µg/mL (≈ 2.31 µM)	O=S(=O)(Nc1cc(-c2ccc3nccc(-c4ccc(CN5CCOCC5)cc4)c3c2)cnc1Cl)c1ccc(F)cc1F [Compound 30, N-(5-(4-(4-((morpholino-1-yl)methyl)phenyl)quinolin-6-yl)-2-chlorinepyridin-3-yl)-2,4-difluorobenzenesulfonamide]
4.8 nM	0.19 µg/mL (≈ 0.332 µM)	1.12 µg/mL (≈ 1.96 µM)			1.06 µg/mL (≈ 1.85 µM)	COc1ncc(-c2ccc3nccc(-c4ccc(CN(C)CCO)cc4)c3c2)cc1NS(=O)(=O)c1ccc(F)cc1 [Compound 38, N-(5-(4-(4-(((2-hydroxyethyl)(methyl)amino)methyl)phenyl)quinolin-6-yl)-2-methoxypyridine-3-yl)-4-fluorobenzenesulfonamide]
	0.324 µg/mL (≈ 0.596 µM)	0.0308 µg/mL (≈ 0.0567 µM)	0.536 µg/mL (≈ 0.986 µM)			COc1cccc2c1C(=O)c1c(O)c3c(c(O)c1C2=O)C[C@@](O)(C(=O)CO)C[C@@H]3O[C@H]1C[C@H](N)[C@H](O)[C@H](C)O1 [DOX, Doxorubicin, reference compound]
